Experimental data taken from ChEMBL document CHEMBL3885861, “Open TG-GATES”.

Species on record: Rattus norvegicus
Assay: Open TG-GATES - Regimen: Single
Assay type: toxicity, organism-based, Sprague-Dawley
Set-up: regimen Single, gender Male, age 6 weeks
Settings: in vivo, po, 1000 mg/kg, route gavage, dose level High; for APTT / Bas / Eos / Fbg / Hb / Ht / Lym / MCHC / MCV / Mono / Neu / PT / Plat / RBC / Ret / WBC: tissue Blood; for KIDNEY_L / KIDNEY_R / KIDNEY_TOTAL: tissue Kidney; for LIVER: tissue Liver

CN(C)C(=N)N=C(N)N [METFORMIN]
APTT (3 h): 16.6 s | Bas (3 h): 0.2% | Eos (3 h): 1% | Fbg (3 h): 250.4 mg/dL | Hb (3 h): 13.4 g/dL | Ht (3 h): 40.4% | Lym (3 h): 78.6% | MCHC (3 h): 33.1% | MCV (3 h): 64 fL | Mono (3 h): 4.2% | Neu (3 h): 15.2% | PT (3 h): 12.2 s | Plat (3 h): 118.4 x10_4/uL | RBC (3 h): 631.8 x10_4/ul | Ret (3 h): 9.7% | WBC (3 h): 85.9 x10_2/uL | KIDNEY_L (3 h): 0.9 g | KIDNEY_R (3 h): 0.9 g | KIDNEY_TOTAL (3 h): 1.8 g | LIVER (3 h): 8.2 g | ALP (3 h, tissue Plasma): 1303.6 IU/L | ALT (3 h, tissue Plasma): 60.8 IU/L | AST (3 h, tissue Plasma): 79.2 IU/L | BUN (3 h, tissue Plasma): 8.8 mg/dL | CRE (3 h, tissue Plasma): 0.2 mg/dL | Ca (3 h, tissue Plasma): 11.1 mg/dL | Cl (3 h, tissue Plasma): 106.6 meq/L | DBIL (3 h, tissue Plasma): 0.008 mg/dL | GLC (3 h, tissue Plasma): 149 mg/dL | IP (3 h, tissue Plasma): 9.3 mg/dL | K (3 h, tissue Plasma): 3.8 meq/L | LDH (3 h, tissue Plasma): 63 IU/L | Na (3 h, tissue Plasma): 141.4 meq/L | PL (3 h, tissue Plasma): 130.2 mg/dL | RALB (3 h, tissue Plasma): 2.6 g/dL | TBIL (3 h, tissue Plasma): 0.038 mg/dL | TG (3 h, tissue Plasma): 47 mg/dL | TP (3 h, tissue Plasma): 5.4 g/dL | gamma-GTP (3 h, tissue Plasma): 1 IU/L | TERMINAL_BW (6 h): 201.2 g | APTT (6 h): 17.8 s | Bas (6 h): 0% | Eos (6 h): 1% | Fbg (6 h): 259.6 mg/dL | Hb (6 h): 13 g/dL | Ht (6 h): 39% | Lym (6 h): 72.4% | MCHC (6 h): 33.2% | MCV (6 h): 64.7 fL | Mono (6 h): 3.4% | Neu (6 h): 22.4% | PT (6 h): 12.3 s | Plat (6 h): 118.4 x10_4/uL | RBC (6 h): 602.6 x10_4/ul | Ret (6 h): 9.9% | WBC (6 h): 87.3 x10_2/uL | KIDNEY_L (6 h): 0.8 g | KIDNEY_R (6 h): 0.8 g | KIDNEY_TOTAL (6 h): 1.7 g | LIVER (6 h): 7.3 g | ALP (6 h, tissue Plasma): 996 IU/L | ALT (6 h, tissue Plasma): 104.2 IU/L | AST (6 h, tissue Plasma): 88.4 IU/L | BUN (6 h, tissue Plasma): 9.2 mg/dL | CRE (6 h, tissue Plasma): 0.1 mg/dL | Ca (6 h, tissue Plasma): 11.1 mg/dL | Cl (6 h, tissue Plasma): 106.2 meq/L | DBIL (6 h, tissue Plasma): 0.004 mg/dL | GLC (6 h, tissue Plasma): 137 mg/dL | IP (6 h, tissue Plasma): 10 mg/dL | K (6 h, tissue Plasma): 3.7 meq/L | LDH (6 h, tissue Plasma): 52 IU/L | Na (6 h, tissue Plasma): 140.8 meq/L | PL (6 h, tissue Plasma): 143.4 mg/dL | RALB (6 h, tissue Plasma): 2.5 g/dL | TBIL (6 h, tissue Plasma): 0.05 mg/dL | TC (6 h, tissue Plasma): 86.2 mg/dL | TG (6 h, tissue Plasma): 20.6 mg/dL | TP (6 h, tissue Plasma): 5.2 g/dL | gamma-GTP (6 h, tissue Plasma): 1 IU/L | TERMINAL_BW (9 h): 199.9 g | APTT (9 h): 16.4 s | Bas (9 h): 0.2% | Eos (9 h): 1% | Fbg (9 h): 251.6 mg/dL | Hb (9 h): 13 g/dL | Ht (9 h): 38.9% | Lym (9 h): 77% | MCHC (9 h): 33.2% | MCV (9 h): 65.9 fL | Mono (9 h): 3% | Neu (9 h): 18.6% | PT (9 h): 12.5 s | Plat (9 h): 112.8 x10_4/uL | RBC (9 h): 591.6 x10_4/ul | Ret (9 h): 10.3% | WBC (9 h): 89.9 x10_2/uL | KIDNEY_L (9 h): 0.8 g | KIDNEY_R (9 h): 0.8 g | KIDNEY_TOTAL (9 h): 1.7 g | LIVER (9 h): 6.8 g | ALP (9 h, tissue Plasma): 1282.4 IU/L | ALT (9 h, tissue Plasma): 84.4 IU/L | AST (9 h, tissue Plasma): 83.2 IU/L | BUN (9 h, tissue Plasma): 10 mg/dL | CRE (9 h, tissue Plasma): 0.1 mg/dL | Ca (9 h, tissue Plasma): 10.9 mg/dL | Cl (9 h, tissue Plasma): 107.4 meq/L | DBIL (9 h, tissue Plasma): 0.008 mg/dL | GLC (9 h, tissue Plasma): 113.8 mg/dL | IP (9 h, tissue Plasma): 10.6 mg/dL | K (9 h, tissue Plasma): 3.7 meq/L | LDH (9 h, tissue Plasma): 46 IU/L | Na (9 h, tissue Plasma): 142.2 meq/L | PL (9 h, tissue Plasma): 138.6 mg/dL | RALB (9 h, tissue Plasma): 2.5 g/dL | TBIL (9 h, tissue Plasma): 0.042 mg/dL | TG (9 h, tissue Plasma): 20.6 mg/dL | TP (9 h, tissue Plasma): 5.1 g/dL | gamma-GTP (9 h, tissue Plasma): 1.2 IU/L | TERMINAL_BW (24 h): 202.6 g | APTT (24 h): 15.2 s | Bas (24 h): 0% | Eos (24 h): 1% | Fbg (24 h): 244.6 mg/dL | Hb (24 h): 12.8 g/dL | Ht (24 h): 38.3% | Lym (24 h): 76.2% | MCHC (24 h): 33.5% | MCV (24 h): 64.5 fL | Mono (24 h): 3.6% | Neu (24 h): 18.6% | PT (24 h): 12.6 s | Plat (24 h): 114.2 x10_4/uL | RBC (24 h): 593.4 x10_4/ul | Ret (24 h): 9.4% | WBC (24 h): 98.2 x10_2/uL | KIDNEY_L (24 h): 0.9 g | KIDNEY_R (24 h): 0.9 g | KIDNEY_TOTAL (24 h): 1.8 g | LIVER (24 h): 8.8 g | ALP (24 h, tissue Plasma): 1502.2 IU/L | ALT (24 h, tissue Plasma): 42.6 IU/L | AST (24 h, tissue Plasma): 74.6 IU/L | BUN (24 h, tissue Plasma): 15.4 mg/dL | CRE (24 h, tissue Plasma): 0.2 mg/dL | Ca (24 h, tissue Plasma): 11.3 mg/dL | Cl (24 h, tissue Plasma): 104.2 meq/L | DBIL (24 h, tissue Plasma): 0.012 mg/dL | GLC (24 h, tissue Plasma): 182.4 mg/dL | IP (24 h, tissue Plasma): 8.8 mg/dL | K (24 h, tissue Plasma): 4.3 meq/L | LDH (24 h, tissue Plasma): 57 IU/L | Na (24 h, tissue Plasma): 140.8 meq/L | PL (24 h, tissue Plasma): 135.4 mg/dL | RALB (24 h, tissue Plasma): 2.5 g/dL | TBIL (24 h, tissue Plasma): 0.038 mg/dL | TG (24 h, tissue Plasma): 53.2 mg/dL | TP (24 h, tissue Plasma): 5.4 g/dL | gamma-GTP (24 h, tissue Plasma): 1 IU/L
